Results: publication PMC9790248, “Effects of CYP3A Inhibition, CYP3A Induction, and Gastric Acid Reduction on the Pharmacokinetics of Ripretinib, a Switch Control KIT Tyrosine Kinase Inhibitor” (Clinical Pharmacology in Drug Development, 2022)
Read-outs that look alike come from different tables or passages of the source.

Experiments:
[1] = Rifampin (strong CYP3A inducer) DDI study, plasma pharmacokinetics; assay type: in vivo, human; conditions: for AUC(0-t) / AUC(0-inf) / Cmax / half-life / Tmax: both sexes, human, plasma; for AUC(0-t) / AUC(0-inf) / Cmax / half-life: po; for Tmax: read-out: tmax, median (min, max); for Time postdose that mean plasma concentration remained above the LLOQ: LLOQ 2.00 ng/mL
Description: All studies were phase 1, fixed‐sequence, open‐label studies in healthy volunteers. One study consisted of two separate cohorts examining DDIs between ripretinib and itraconazole or pantoprazole, respectively; the rifampin study was conducted separately. Studies and cohorts were enrolled independently. Eligible participants were healthy male or female adults between 18 and 55 years of age with a body mass index (BMI) of ≥18.5 and ≤30 kg/m^2. Good health was confirmed by a physician and based on medical evaluation with no significant findings, including medical history, physical examination, laboratory tests, and 12‐lead electrocardiogram (ECG) at screening and day −1. Participants were required to abstain from alcohol, marijuana, grapefruit, Seville oranges, tangelo, star fruit, and grapefruit‐like products 14 days prior to and during the study. Participants with a positive breath test for Helicobacter pylori were excluded from the pantoprazole study.
Participants were confined to the study center from days −1 through 22 for the collection of plasma PK samples and all study procedures. Participants received an oral dose of ripretinib 100 mg on day 1 under fasting conditions; a higher dose of ripretinib was used than in the itraconazole or pantoprazole study due to the potential for decreased ripretinib exposure when coadministered with a strong CYP3A inducer (Figure 1B). On day 8, participants received oral doses of rifampin 600 mg once daily 1 hour before a meal with a full glass of water for 14 consecutive days through day 21. On day 18, participants received a second dose of ripretinib 100 mg administered simultaneously with rifampin 600 mg under fasting conditions. Blood samples for PK analysis were collected at predose and 1, 2, 3, 4, 5, 8, 10, 12, 24, 36, 48, 72, and 96 hours after administration of ripretinib on days 1 and 18. Safety was assessed throughout the study period and with a follow‐up phone call on day 29 or 7 days after discontinuation in the case of early withdrawal.
Ripretinib and its active metabolite DP‐5439 plasma concentrations were measured using a validated high‐performance liquid chromatography (HPLC) with tandem mass spectrometry (LC‐MS/MS) assay with a lower limit of quantification (LLOQ) of 2.00 ng/mL for both analytes. In this method, the analytes (ripretinib and DP‐5439) and the internal standards (ISs; DCC‐2618‐d5 and DP‐5439‐d5) were released from human plasma samples by protein precipitation. The supernatants were chromatographed using reversed‐phase HPLC with a Betasil® C8 analytical column with deionized water (0.1% formic acid) and 40/60 acetonitrile/acetone (0.1% formic acid) as the mobile phase. Mass spectrometric detection was performed on a triple quadrupole tandem mass spectrometer API 5000 or API 5500 (Applied Biosystems/MDS Sciex, Toronto, Canada) equipped with a turbo ion spray source operated in the positive ionization mode. The source parameters were collision energy 40 eV, collision gas 6 psi, Nebulizer Gas 1, Turbo IonSpray Gas 2, and curtain gas 35 psi. Quantification was obtained by using multiple reaction monitoring mode of the transitions of mass to charge ratio [m/z] 510.3 →417 for DCC‐2618 (ripretinib), m/z 496.2 →403 for DP‐5439, m/z 515.3 →417 for DCC‐2618‐d5, and m/z 501.2 →403 for DP‐5439‐d5.
Plasma concentration–time data were analyzed using noncompartmental methods using Phoenix® WinNonlin® v7.0 (Certara USA Inc., Princeton, New Jersey). Derived PK parameters included area under the concentration–time curve from time 0 to time t (AUC0–t) and area under the concentration–time curve from 0 to infinity (AUC0–∞), maximum observed concentration (Cmax), time of maximum observed concentration (tmax), elimination half‐life (t1/2), apparent systemic clearance, and for DP‐5439, metabolite to parent ratio for AUC0–t, AUC0–∞, and Cmax. […]

CYP2C8 = target: T1, CYP2C8 (Homo sapiens, UniProt P10632); test: Human liver microsomes with chemical inhibitors; assay type: in vitro ADME; conditions: metabolism-dependent inhibitor gemfibrozil glucuronide
T1 sequence (P10632 1-490): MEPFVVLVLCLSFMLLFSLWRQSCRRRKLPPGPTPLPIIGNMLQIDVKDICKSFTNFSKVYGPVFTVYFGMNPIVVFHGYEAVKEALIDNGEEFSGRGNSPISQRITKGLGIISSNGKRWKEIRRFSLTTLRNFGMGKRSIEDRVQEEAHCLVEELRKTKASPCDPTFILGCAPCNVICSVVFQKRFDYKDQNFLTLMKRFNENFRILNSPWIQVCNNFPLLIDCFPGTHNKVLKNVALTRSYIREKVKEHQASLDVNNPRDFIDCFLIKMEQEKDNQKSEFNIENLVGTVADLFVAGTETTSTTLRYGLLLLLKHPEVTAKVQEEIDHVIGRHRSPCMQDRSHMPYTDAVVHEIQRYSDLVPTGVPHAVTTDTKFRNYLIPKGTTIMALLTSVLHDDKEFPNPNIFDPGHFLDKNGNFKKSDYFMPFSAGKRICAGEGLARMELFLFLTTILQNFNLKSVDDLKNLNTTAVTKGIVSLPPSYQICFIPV
Description: (§1) In vitro studies with recombinant human cytochrome P450 isoforms (CYPs) and human liver microsomes (with chemical inhibitors) indicate that CYP3A4/5 plays a major role in the metabolism of ripretinib (data on file). When incubated with a panel of recombinant human CYPs, ripretinib (0.1 or 1 μM) disappeared in the presence of CYP3A4 (87.8%–100%), CYP2D6 (97.7%–100%), CYP2C8 (71.2% and 18.9%, respectively), and CYP2C19 (15.7% and 6.7%, respectively).

CYP3A4/5 = test: Human liver microsomes with chemical inhibitors; assay type: in vitro ADME
Description: as §1

hepatocytes = test system: hepatocytes; set-up: method as in PMID 31085175; conditions: cited from earlier work
[2] = ripretinib 100 mg single oral dose + rifampin 600 mg QD, fasting, healthy participants (N = 21)
[3] = ripretinib 100 mg single oral dose alone, fasting, healthy participants (rifampin study, N = 21)
[4] = ripretinib 100 mg with rifampin 600 mg QD relative to ripretinib alone
[5] = ripretinib 100 mg with rifampin 600 mg QD relative to ripretinib alone, listed as ripretinib

CCn1c(=O)c(-c2cc(NC(=O)Nc3ccccc3)c(F)cc2Br)cc2cnc(NC)cc21 [Ripretinib]
AUC(0-t) ([1]; 100 mg, ripretinib 100 mg single oral dose alone, fasting, healthy participants (rifampin study, N = 21), read-out: AUC0–t, arithmetic mean (SD)): 6620 ng·h/mL | AUC(0-t) ([1]; 100 mg, ripretinib 100 mg single oral dose alone, fasting, healthy participants (rifampin study, N = 21), read-out: AUC0–t, geometric mean (CV%)): 5720 ng·h/mL | AUC(0-inf) ([1]; 100 mg, ripretinib 100 mg single oral dose alone, fasting, healthy participants (rifampin study, N = 21), read-out: AUC0–∞, arithmetic mean (SD)): 6220 ng·h/mL | AUC(0-inf) ([1]; 100 mg, ripretinib 100 mg single oral dose alone, fasting, healthy participants (rifampin study, N = 21), read-out: AUC0–∞, geometric mean (CV%)): 5820 ng·h/mL | Cmax ([1]; 100 mg, ripretinib 100 mg single oral dose alone, fasting, healthy participants (rifampin study, N = 21), read-out: Cmax, arithmetic mean (SD)): 392 ng/mL | Cmax ([1]; 100 mg, ripretinib 100 mg single oral dose alone, fasting, healthy participants (rifampin study, N = 21), read-out: Cmax, geometric mean (CV%)): 363 ng/mL | half-life ([1]; 100 mg, ripretinib 100 mg single oral dose alone, fasting, healthy participants (rifampin study, N = 21), read-out: t1/2, arithmetic mean (SD) (converted)): 15 h | half-life ([1]; 100 mg, ripretinib 100 mg single oral dose alone, fasting, healthy participants (rifampin study, N = 21), read-out: t1/2, geometric mean (CV%) (converted)): 15 h | AUC(0-t) ([1]; ripretinib 100 mg single oral dose + rifampin 600 mg QD, fasting, healthy participants (N = 21), read-out: AUC0–t, arithmetic mean (SD)): 2360 ng·h/mL | AUC(0-t) ([1]; ripretinib 100 mg single oral dose + rifampin 600 mg QD, fasting, healthy participants (N = 21), read-out: AUC0–t, geometric mean (CV%)): 2230 ng·h/mL | AUC(0-inf) ([1]; ripretinib 100 mg single oral dose + rifampin 600 mg QD, fasting, healthy participants (N = 21), read-out: AUC0–∞, arithmetic mean (SD)): 2400 ng·h/mL | AUC(0-inf) ([1]; ripretinib 100 mg single oral dose + rifampin 600 mg QD, fasting, healthy participants (N = 21), read-out: AUC0–∞, geometric mean (CV%)): 2270 ng·h/mL | Cmax ([1]; ripretinib 100 mg single oral dose + rifampin 600 mg QD, fasting, healthy participants (N = 21), read-out: Cmax, arithmetic mean (SD)): 321 ng/mL | Cmax ([1]; ripretinib 100 mg single oral dose + rifampin 600 mg QD, fasting, healthy participants (N = 21), read-out: Cmax, geometric mean (CV%)): 299 ng/mL | half-life ([1]; ripretinib 100 mg single oral dose + rifampin 600 mg QD, fasting, healthy participants (N = 21), read-out: t1/2, arithmetic mean (SD) (converted)): 7 h | half-life ([1]; ripretinib 100 mg single oral dose + rifampin 600 mg QD, fasting, healthy participants (N = 21), read-out: t1/2, geometric mean (CV%) (converted)): 7 h | Tmax [1, 2]: 3 h | Tmax [1, 3]: 3 h | Exposure when combined with rifampin, relative to ripretinib alone ([1]; ripretinib 100 mg + rifampin 600 mg QD): less than half | Time postdose that mean plasma concentration remained above the LLOQ ([1]; ripretinib 100 mg alone (rifampin study)): up to 96 hours | CL/F, arithmetic mean (SD) [1, 2]: 47 (16) L/h | CL/F, geometric mean (CV%) [1, 2]: 44 (35) L/h | t1/2, geometric mean (CV%) [1, 2]: 6 (46) h | CL/F, arithmetic mean (SD) [1, 3]: 18 (7) L/h | CL/F, geometric mean (CV%) [1, 3]: 17 (39) L/h | Geometric LS mean ratio of AUC0–t [1, 4]: 39% | Geometric LS mean ratio of AUC0–∞ (90% CI) [1, 4]: 39 (35–44) % | Geometric LS mean ratio of Cmax (90% CI) [1, 4]: 82 (72–94) % | Geometric LS mean ratio of AUC0–∞ (90% CI) [1, 5]: 39% | Geometric LS mean ratio of Cmax (90% CI) [1, 5]: 82% | Time postdose that mean plasma concentration remained above the LLOQ ([1]; ripretinib 100 mg with rifampin): approximately 36 hours | Inhibition of metabolism of ripretinib on inhibition of CYP2C8 (CYP2C8): 24% | Inhibition of metabolism of ripretinib on inhibition of CYP3A4/5 (CYP3A4/5; human liver microsomes, metabolism-dependent inhibitor troleandomycin): 79% | Role of CYP3A4/5 in metabolism (CYP3A4/5; recombinant human CYPs and human liver microsomes with chemical inhibitors, data on file): major role | Decrease in metabolism of ripretinib on inhibition of CYP3A4/5 (CYP3A4/5; ripretinib 0.1 μM, human liver microsomes 0.5 mg protein/mL, 30 minutes, with ketoconazole): up to 63% | Major metabolic pathway (hepatocytes): N‐demethylation
